The results in this text go back to US7163941B2, “Pyrido[2,3-d]pyrimidin-7-carboxylic acid derivatives, their manufacture and use as pharmaceutical agents” (Hoffmann-La Roche Inc., priority 2003, dated 2007).

The structures appear in SMILES notation.

Usually IC50 stands for the concentration that inhibits the measured activity by half.

The target of assay [1] is T1, Src (p60^c-src, partially purified) (Homo sapiens, UniProt P12931).
T1 construct: purchased Upstate (UBI)
The assay can be described thus: SRC-Inhibitor-Assay (time-resolved fluorescence), Src enzyme. The class given is biochemical. Conditions: ATP 5 μM, peptide 10 μM, enzyme 2.5 U/ml, pre-incubation 15 min at 15° C. How it is done:
(§1) The activity of the compounds according to this invention as inhibitors for the src-family tyrosine kinases was shown by using the following assay.
(§2) SRC-Inhibitor-Assay Parameters:
(§3) • Reaction mixture: • ATP 5 μM • Peptide (R+Ja133-Ro): 10 μM • Ja133-Ro 196 nM • Ro 9.8 μM • PT66 230 ng/ml • Assay buffer: 4 mM MgCl2 • 2 mM TCEP • 50 mM HEPES • 0,1% Tween 20 • pH 7.3 • Enzyme: 2.5 U/ml • Inhibitor: max. 25 μM • min. 0.42 nM Material: • Eu-labelled phosphotyrosine antibody: -for Lck Cisbio Mab PT66-K, • for Src EG&G Wallac PT66 Eu-W1024 (all commercially available). • Peptides: Ro: NH2-A-E-E-E-I-Y-G-E-F-E-A-K-K-K-K-CONH2 (SEQ ID NO: 1), and • Ja133-Ro: Ja133-G-Aminocaprylic acid-A-E-E-E-I-Y-G-E-F-E-A-K-K-K-K-CONH2 (SEQ ID NO: 2), wherein Ja133 is LightCycler-Red 640-N-hydroxy succinimide ester; • whereby both peptides were synthesized by an optimized solid phase peptide synthesis protocol (Merrifield, Fed. Proc. Fed. Amer. Soc. Exp. Biol. 21 (1962) 412) on a Zinsser SMP350 peptide synthesizer. Shortly, the peptide was assembled on 160 mg (22.8 μmol scale) of a Rink-Linker modified polystyrene solid phase by repeatedly conjugating an twenty fold excess of aminoacids each protected by temporary piperidine labile Fmoc- and permanent acid labile tert-Bu-, BOC- and Otert-Bu-groups depending on the side chain function. The substrate sequence AEEEIYGEFEAKKKK (SEQ ID NO: 1) was N-terminal additionally mounted with the spacer amino acids Aminocaprylic acid and Glycin. After cleavage of the N-terminal temporary protecting group the still attached and protected peptide was labeled with a 1.5 fold amount of LightCycler-Red 640-N-hydroxy succinimide ester (purchased by Roche Diagnostics GmbH) and triethylamine. After 3 hrs. the resin was washed with Dimethylformamide and Isopropanol until the eluates of the blue resin got colo-rless. […] The substrate was finally isolated by a preparative reverse phase HPLC purification. The purification yielded 12.2 mg RP-HPLC single peak pure blue material (lyophilisate). The identity was proven by MALDI mass spectroscopy [2720.0]. • Enzymes: Upstate Lck (p56^lck, active), Upstate Src (p60^c-src, partially purified) were purchased from UBI. • Time-resolved Fluorescence Assay: Reader: Perkin Elmer, Wallac Viktor 1420-040 multilabel counter; Liquid handling system: Beckman Coulter, Biomek 2000. ATP, Tween 20, HEPES were purchased from Roche Molecular Biochemicals, MgCl2 and MnCl2 were purchased from Merck Eurolab, TCEP was purchased from Pierce, 384 Well low volume fluorescence plates was purchased from Falcon. Assay Description:
(§4) At first the enzyme is pre-incubated for 15 min. at 15° C. in aqueous solution with corresponding amounts of inhibitors according to this invention. Then the phosphorylation reaction is started by adding a reaction mixture, containing ATP, Peptide and PT66, and subsequent shaking. The proceeding of this reaction is immediately monitored using time resolved fluorescence spectroscopy in a suitable well plate reader.
(§5) The IC50-values can be obtained from the reaction rates by using a non-linear curve fit (Excelfit).

In assay [2] the target is T2, Lck (p56^lck, active) (Homo sapiens, UniProt P06239).
T2 construct: purchased Upstate (UBI)
T2 sequence (P06239 whole entry, species assumed): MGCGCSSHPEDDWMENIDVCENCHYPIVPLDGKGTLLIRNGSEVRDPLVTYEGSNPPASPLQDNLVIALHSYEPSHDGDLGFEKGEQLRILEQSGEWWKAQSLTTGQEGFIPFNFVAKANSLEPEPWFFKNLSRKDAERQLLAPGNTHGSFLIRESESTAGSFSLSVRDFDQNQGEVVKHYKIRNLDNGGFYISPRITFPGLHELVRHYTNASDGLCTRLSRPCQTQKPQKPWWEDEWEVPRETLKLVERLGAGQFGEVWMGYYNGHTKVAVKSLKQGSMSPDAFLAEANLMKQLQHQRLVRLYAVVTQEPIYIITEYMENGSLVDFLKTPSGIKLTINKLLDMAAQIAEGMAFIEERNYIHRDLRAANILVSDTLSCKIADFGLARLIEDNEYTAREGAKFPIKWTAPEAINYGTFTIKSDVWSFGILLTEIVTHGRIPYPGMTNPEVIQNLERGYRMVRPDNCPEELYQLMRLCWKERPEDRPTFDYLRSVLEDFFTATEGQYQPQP
Description: SRC-Inhibitor-Assay (time-resolved fluorescence), Lck enzyme. Conditions: ATP 5 μM, peptide 10 μM, enzyme 2.5 U/ml, pre-incubation 15 min at 15° C. The class given is biochemical. Here is the method:
as §1, §2, §3, §4, §5

T1 sequence (P12931 whole entry, species assumed): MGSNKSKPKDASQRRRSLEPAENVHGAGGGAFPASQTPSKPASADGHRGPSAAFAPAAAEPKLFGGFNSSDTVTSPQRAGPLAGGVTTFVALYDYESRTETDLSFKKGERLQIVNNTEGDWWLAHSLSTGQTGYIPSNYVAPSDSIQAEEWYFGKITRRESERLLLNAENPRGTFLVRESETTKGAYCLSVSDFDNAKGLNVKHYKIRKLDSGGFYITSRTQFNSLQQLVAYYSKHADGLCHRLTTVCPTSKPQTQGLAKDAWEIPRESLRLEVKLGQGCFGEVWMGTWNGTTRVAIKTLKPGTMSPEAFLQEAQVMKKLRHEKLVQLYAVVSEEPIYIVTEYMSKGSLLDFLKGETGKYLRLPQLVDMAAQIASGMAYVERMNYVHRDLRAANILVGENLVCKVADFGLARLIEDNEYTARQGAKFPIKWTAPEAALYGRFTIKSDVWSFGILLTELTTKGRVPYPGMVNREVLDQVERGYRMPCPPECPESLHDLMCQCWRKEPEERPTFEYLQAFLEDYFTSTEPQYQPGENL

As for `O=C(NC1CCNCC1)c1nc2nc(Nc3ccc(N4CCOCC4)cc3)ncc2cc1-c1ccccc1Br` [Example 1, 6-(2-Bromo-phenyl)-2-(4-morpholin-4-yl-phenylamino)-pyrido[2,3-d]pyrimidine-7-carboxylic acid piperidin-4-ylamide], the values for the IC50 in assay [1] and in assay [2] were 10.7 nM and 60.1 nM, respectively.

In the case of `CS(=O)(=O)c1cccc(Nc2ncc3cc(-c4ccccc4Br)c(C#N)nc3n2)c1` [Example 2, 6-(2-Bromo-phenyl)-2-(3-methanesulfonyl-phenylamino)-pyrido[2,3-d]pyrimidine-7-carbonitrile], the 50% inhibitory concentration (IC50) in assay [1] was 33 nM; in assay [2], 159 nM.

Turning to `NC(=O)c1nc2nc(Nc3ccc(N4CCOCC4)cc3)ncc2cc1-c1ccccc1Br` [Example 3-1, 6-(2-Bromo-phenyl)-2-(4-morpholin-4-yl-phenylamino)-pyrido[2,3-d]pyrimidine-7-carboxylic acid amide], the results for the IC50 in assay [1] and in assay [2] were 3 nM and 23 nM, respectively.

`CCN(CC)CCOc1ccc(Nc2ncc3cc(-c4ccccc4Br)c(C(N)=O)nc3n2)cc1` [Example 3-2, 6-(2-Bromo-phenyl)-2-[4-(2-diethylamino-ethoxy)-phenylamino]-pyrido[2,3-d]pyrimidine-7-carboxylic acid amide]: the 50% inhibitory concentration (IC50) came out at 4.4 nM in assay [1] and 12.5 nM in assay [2].

As for `CSc1cccc(Nc2ncc3cc(-c4ccccc4Br)c(C(N)=O)nc3n2)c1` [Example 3-3, 6-(2-Bromo-phenyl)-2-(3-methylsulfanyl-phenylamino)-pyrido[2,3-d]pyrimidine-7-carboxylic acid amide], in assay [1], the IC50 is 7.8 nM.

`NC(=O)c1nc2nc(Nc3ccc(S(N)(=O)=O)cc3)ncc2cc1-c1ccccc1Br` [Example 3-4, 6-(2-Bromo-phenyl)-2-(4-sulfamoyl-phenylamino)-pyrido[2,3-d]pyrimidine-7-carboxylic acid amide]: the half-inhibitory concentration (IC50) in assay [1] was 6.9 nM; in assay [2], 73.8 nM.

In the case of `CNS(=O)(=O)Cc1cccc(Nc2ncc3cc(-c4ccccc4Br)c(C(N)=O)nc3n2)c1` [Example 3-5, 6-(2-Bromo-phenyl)-2-(3-methylsulfamoylmethyl-phenylamino)-pyrido[2,3-d]pyrimidine-7-carboxylic acid amide], the figures for the IC50 in assay [1] and in assay [2] were 35.7 nM and 110 nM, respectively.

In the case of `NC(=O)c1nc2nc(Nc3cccc(S(=O)(=O)CCO)c3)ncc2cc1-c1ccccc1Br` [Example 3-6, 6-(2-Bromo-phenyl)-2-[3-(2-hydroxy-ethanesulfonyl)-phenylamino]-pyrido[2,3-d]pyrimidine-7-carboxylic acid amide], the IC50 in assay [1] was 22.5 nM; in assay [2], 145 nM.

As for `CS(=O)(=O)c1cccc(Nc2ncc3cc(-c4ccccc4Br)c(C(N)=O)nc3n2)c1` [Example 3-7, 6-(2-Bromo-phenyl)-2-(3-methanesulfonyl-phenylamino)-pyrido[2,3-d]pyrimidine-7-carboxylic acid amide], the half-maximal inhibitory concentration (IC50) stood at 16.6 nM in assay [1] and 113 nM in assay [2].

For `CSc1cccc(Nc2ncc3cc(-c4ccccc4Br)c(C(=O)NCCN(C)C)nc3n2)c1` [Example 3-8, 6-(2-Bromo-phenyl)-2-(3-methylsulfanyl-phenylamino)-pyrido[2,3-d]pyrimidine-7-carboxylic acid (2-dimethylamino-ethyl)-amide], the results for the IC50 in assay [1] and in assay [2] were 1.7 nM and 32.3 nM, respectively.

Regarding `CN(C)CCNC(=O)c1nc2nc(Nc3ccc(N4CCOCC4)cc3)ncc2cc1-c1ccccc1Br` [Example 3-9, 6-(2-Bromo-phenyl)-2-(4-morpholin-4-yl-phenylamino)-pyrido[2,3-d]pyrimidine-7-carboxylic acid (2-dimethylamino-ethyl)-amide], the half-inhibitory concentration (IC50) in assay [1] stood at 0.9 nM; in assay [2] it was 12.1 nM.

For `CCN(CC)CCOc1ccc(Nc2ncc3cc(-c4ccccc4Br)c(C(=O)NCCN(C)C)nc3n2)cc1` [Example 3-10, 6-(2-Bromo-phenyl)-2-[4-(2-diethylamino-ethoxy)-phenylamino]-pyrido[2,3-d]pyrimidine-7-carboxylic acid (2-dimethylamino-ethyl)-amide], the IC50 stood at 1.6 nM in assay [1] and 3.7 nM in assay [2].

`O=C(NC1CCNCC1)c1nc2nc(Nc3ccc(F)cc3)ncc2cc1-c1ccccc1Br` [Example 3-11, 6-(2-Bromo-phenyl)-2-(4-fluoro-phenylamino)-pyrido[2,3-d]pyrimidine-7-carboxylic acid piperidin-4-ylamide]: the IC50 in assay [1] was 66.1 nM; in assay [2] it was 774 nM.

Consider `CN(C)CCNC(=O)c1nc2nc(Nc3ccc(F)cc3)ncc2cc1-c1ccccc1Br` [Example 3-12, 6-(2-Bromo-phenyl)-2-(4-fluoro-phenylamino)-pyrido[2,3-d]pyrimidine-7-carboxylic acid (2-dimethylamino-ethyl)-amide], for which the IC50 is 34.1 nM in assay [1] and 350 nM in assay [2].

Regarding `COCCNC(=O)c1nc2nc(Nc3ccc(F)cc3)ncc2cc1-c1ccccc1Br` [Example 3-13, 6-(2-Bromo-phenyl)-2-(4-fluoro-phenylamino)-pyrido[2,3-d]pyrimidine-7-carboxylic acid (2-methoxy-ethyl)-amide], the values for the IC50 in assay [1] and in assay [2] were 114 nM and 360 nM, respectively.

As to `CN(C)CCCNC(=O)c1nc2nc(Nc3ccc(F)cc3)ncc2cc1-c1ccccc1Br` [Example 3-14, 6-(2-Bromo-phenyl)-2-(4-fluoro-phenylamino)-pyrido[2,3-d]pyrimidine-7-carboxylic acid (3-dimethylamino-propyl)-amide], the IC50 in assay [1] worked out at 21.7 nM; in assay [2], 233 nM.

As to `CN(C)CC(C)(C)CNC(=O)c1nc2nc(Nc3ccc(F)cc3)ncc2cc1-c1ccccc1Br` [Example 3-15, 6-(2-Bromo-phenyl)-2-(4-fluoro-phenylamino)-pyrido[2,3-d]pyrimidine-7-carboxylic acid (3-dimethylamino-2,2-dimethyl-propyl)-amide], the values for the half-maximal inhibitory concentration (IC50) in assay [1] and in assay [2] were 41.5 nM and 218 nM, respectively.

Turning to `CC(=O)NCCNC(=O)c1nc2nc(Nc3ccc(F)cc3)ncc2cc1-c1ccccc1Br` [Example 3-16, 6-(2-Bromo-phenyl)-2-(4-fluoro-phenylamino)-pyrido[2,3-d]pyrimidine-7-carboxylic acid (2-acetylamino-ethyl)-amide], the figures for the IC50 in assay [1] and in assay [2] were 81.4 nM and 189 nM, respectively.

Consider `CNCCNC(=O)c1nc2nc(Nc3ccc(F)cc3)ncc2cc1-c1ccccc1Br` [Example 3-17, 6-(2-Bromo-phenyl)-2-(4-fluoro-phenylamino)-pyrido[2,3-d]pyrimidine-7-carboxylic acid (2-methylamino-ethyl)-amide], for which the IC50 turned out to be 6.2 nM in assay [1] and 39.8 nM in assay [2].

Consider `NC(=O)NNC(=O)c1nc2nc(Nc3ccc(F)cc3)ncc2cc1-c1ccccc1Br` [Example 3-18, 1-[6-(2-Bromo-phenyl)-2-(4-fluoro-phenylamino)-pyrido[2,3-d]pyrimidine-7-carbonyl]semicarbazide], for which the figures for the IC50 in assay [1] and in assay [2] were 24.8 nM and 68.4 nM, respectively.

Consider `CN(C)CCN(C)C(=O)c1nc2nc(Nc3ccc(F)cc3)ncc2cc1-c1ccccc1Br` [Example 3-19, 6-(2-Bromo-phenyl)-2-(4-fluoro-phenylamino)-pyrido[2,3-d]pyrimidine-7-carboxylic acid (2-dimethylamino-ethyl)-methyl-amide], for which the IC50 in assay [1] amounted to 200 nM; in assay [2] it was 357 nM.

As for `NC(=O)CNC(=O)c1nc2nc(Nc3ccc(F)cc3)ncc2cc1-c1ccccc1Br` [Example 3-20, 6-(2-Bromo-phenyl)-2-(4-fluoro-phenylamino)-pyrido[2,3-d]pyrimidine-7-carboxylic acid carbamoylmethyl-amide], the half-maximal inhibitory concentration (IC50) in assay [1] is 62.4 nM; in assay [2], 289 nM.
